Experimental data taken from patent US11510926B2, “Pharmaceutical salts/co-crystals of pentoxifylline, clonidine and linsidomine with caffeic, protocatechuic or alpha-lipoic acid an use thereof for treatment of pain” (priority 2018, dated 2022).

Experiments:
CPIP rat model of CRPS [1] = assay: Mechanical sensitivity (paw withdrawal threshold, von Frey) after topical application to the ipsilateral hind paw of CPIP rats; format: in vivo; details: for maximum change in PWTs after topical application: dose response comparison, Lin-CafA has half of the linsidomine content
From the text: Topical drugs were formulated into ointment-type preparation using a composite, water-soluble polyethylene glycol base system consisting of 40% carbowax (PEG 3350) and 60% PEG 400 (both from Sigma Aldrich). The required amounts of the active ingredients were first weighted out and then added to the already molten base and mixed well. The vehicle treatment consisted of the same water-miscible base ointment without the addition of the active drugs. The Chronic Post-ischemic Pain (CPIP) rat model of CRPS was prepared by inducing prolonged hind paw ischemia and subsequent reperfusion, as previously described by Coderre et. al., Pain, 112(1):94-105, 2004. In short, male Long Evans rats (300-400 g; Charles River, QC, Canada) were anesthetized over a 3-hour period with a bolus (55 mg/kg, intraperitoneally [i.p.]) followed by chronic i.p. infusion (0.15 mL/hour) of sodium pentobarbital (Ceva Sante Animale, Libourne, France) for 2 hours. Following induction of anesthesia, a Nitrile 70 Durometer O-ring (O-rings West, Seattle, Wash.) with an internal diameter of 5.5-mm was slipped around the rat's left hind limb proximal to the ankle joint to effect a complete blockade of arterial blood flow ([…] al., Mol Pain, 4:49, 2008). The ring was left in place for 3 hours, and the rats recovered from anesthesia 30 to 60 minutes following reperfusion. Mechanical Sensitivity Testing As a measure of mechanical sensitivity, paw withdrawal threshold (PWT), was tested on plantar surface of the ipsilateral hind paw of the CPIP rats. The rats were first habituated for 30 minutes in the testing chambers. Nylon monofilaments (von Frey hairs) with thickness designed to apply stimulus intensity ranging between 1 g and 15 g were applied to the plantar surface of the rats' hind-paw. The filaments were applied for 10 seconds or until flexion reflex occurred. PWTs were determined using Chaplan's up and down method after testing with the filaments in either ascending (after negative response) or descending (after positive response) order to find the correct response pattern which was later matched with its corresponding 50% threshold of paw withdrawal (Chaplan et al., J Neurosci Methods, 53:55-63, 1994). Time course measurements of PWTs after vehicle and drug administration were subjected to a repeated measure analysis of variance (ANOVA). Pairwise comparison was performed between PWTs obtained from drug and vehicle treatment groups measured at matching post-treatment times using Tukey's HSD test. Cumulative anti-allodynic effect measured over 180-minute time course experiments was assessed by calculating the area under the curve (AUC) of PWT elevations plotted post-topical application. Comparisons of different drug doses versus vehicle were performed using repeated measure ANOVA followed by Tukey's HSD test. Dose response curves for comparison of anti-allodynic potency were plotted on a semi-log scale with the amount of drug used per application on the X-axis and the AUC of the 180-minute PWT measured or change in PWT obtained post-drug application on the Y-axis. The linear regression of the dose-response curves was then calculated, and their difference analysed using a 1-way ANOVA. The synthesized salts/co-crystals of […], clonidine and […] were formulated into a polyethylene based topical ointment and their analgesic efficacy and potency tested and compared to their parent drugs on the CPIP rat model of CRPS.

CPIP rat model of CRPS [2] = assay: Systemic absorption control: topical application to the uninjured contralateral paw, PWT of the injured CRPS paw; format: in vivo; details: concentration previously shown to relieve allodynia; PWT of injured paw at 30, 60, 120 and 180 minutes
Experimental: Mechanical Sensitivity Testing As a measure of mechanical sensitivity, paw withdrawal threshold (PWT), was tested on plantar surface of the ipsilateral hind paw of the CPIP rats. The rats were first habituated for 30 minutes in the testing chambers. Nylon monofilaments (von Frey hairs) with thickness designed to apply stimulus intensity ranging between 1 g and 15 g were applied to the plantar surface of the rats' hind-paw. The filaments were applied for 10 seconds or until flexion reflex occurred. PWTs were determined using Chaplan's up and down method after testing with the filaments in either ascending (after negative response) or descending (after positive response) order to find the correct response pattern which was later matched with its corresponding 50% threshold of paw withdrawal (Chaplan et al., J Neurosci Methods, 53:55-63, 1994).
To assess for any contribution systemic absorption might have to the anti-allodynic effects seen with the novel salts and co-crystals, we performed a control experiment using contralateral topical administration of the compounds. A topical preparation of the salts and co-crystals at a concentration proven to produce anti-allodynia, was applied to the uninjured contralateral paw of the CRPS rats and the effect this had on the PWT of the injured CRPS paw was measured at 30, 60, 120 and 180 minutes post topical application. The PWT obtained at 30, 60, 120 and 180 minutes post topical application were then compared with the values obtained after direct topical application on the injured CPRS paw.

O=C(O)/C=C/c1ccc(O)c(O)c1 [CafA, caffeic acid, reference compound]
anti-allodynic effects of topical administration on its own (CPIP rat model of CRPS [1]; CafA alone, FIG. 9C): no anti-allodynic effects | anti-allodynic effect upon topical application (CPIP rat model of CRPS [1]; CafA alone, three concentrations corresponding to W/W levels in the Pntx-CafA co-crystal, n=10): no anti-allodynic effect

Clc1cccc(Cl)c1NC1=NCCN1.O=C(O)CCCCC1CCSS1 [Clon-ALA, clonidine α-lipoate]
rise in PWTs compared to vehicle (CPIP rat model of CRPS [1]; 0.025% w/w, 30 minutes post-application): significant rise in PWTs | duration of elevated PWTs (CPIP rat model of CRPS [1]; 0.05% w/w, compared to 0.025% (30 minutes)): stay significantly higher for twice as long | increase in potency (CPIP rat model of CRPS [1]; Clon-ALA compared to Clon-HCl): ~2 × | leftward shift of x-intercept of the dose response curve (CPIP rat model of CRPS [1]; Clon-ALA compared to Clon-HCl, p=0.04): 0.265 log units | relief of mechanical hypersensitivity (CPIP rat model of CRPS [1]; topical Clon-ALA, different doses, n=7): dose-dependently, relieves mechanical hypersensitivity | anti-allodynic effects when applied to the contralateral (uninjured) paw (CPIP rat model of CRPS [2]): no anti-allodynic effects

Nc1c[n+](N2CCOCC2)no1.O=C([O-])/C=C/c1ccc(O)c(O)c1 [Lin-CafA, linsidomine caffeate]
elevation of PWTs compared to vehicle (CPIP rat model of CRPS [1]; 1.6% w/w, 30, 60 and 120 minutes post-application): significantly elevates PWTs to non-allodynic values | increase in potency (CPIP rat model of CRPS [1]; Lin-CafA compared to Lin-Cl): ~2.5 fold | leftward shift of x-intercept of the dose response curve (CPIP rat model of CRPS [1]; Lin-CafA compared to Lin-Cl, p=0.0026): 0.3966 log units | efficacy and potency compared with linsidomine chloride (CPIP rat model of CRPS [1]; comparison of dose response curves): greater efficacy and potency | maximum change in PWTs after topical application (CPIP rat model of CRPS [1]): 9.6±1.15 | anti-allodynic effect compared to vehicle (CPIP rat model of CRPS [1]; topical W/W 1.6% and 0.8%, for as long as 120 minutes post-application, n=9): significant anti-allodynic effect | anti-allodynic effects when applied to the contralateral (uninjured) paw (CPIP rat model of CRPS [2]): no anti-allodynic effects

O=C(O)c1ccc(O)c(O)c1 [PCA, protocatechuic acid, reference compound]
anti-allodynic effect compared to vehicle (CPIP rat model of CRPS [1]; PCA alone, topical, at the w/w doses contained in the Pntx-PCA co-crystal): does not produce significant anti-allodynic effects

CC(=O)CCCCn1c(=O)c2c(ncn2C)n(C)c1=O.O=C(O)C=Cc1ccc(O)c(O)c1 [Pntx-CafA, pentoxifylline caffeate]
anti-allodynic potency in linear segment of dose-response curve (CPIP rat model of CRPS [1]; Pntx-CafA 2% W/W and 1% W/W compared to Pntx alone): more potent anti-allodynic effect | elevation of PWTs compared to vehicle (CPIP rat model of CRPS [1]; topical 2% W/W, 60, 120 and 180 minutes post application, n=10): significant and sustained elevation of PWTs | anti-allodynic effect at higher dose (CPIP rat model of CRPS [1]; topical 4% W/W compared to 2% W/W): did not improve

[NH-]c1c[n+](N2CCOCC2)no1 [linsidomine chloride, reference compound]
maximum change in PWTs after topical application (CPIP rat model of CRPS [1]): 6.23±0.99

pentoxifylline protocatechuate [Pntx-PCA]
cumulative 3-hour anti-allodynic effect (CPIP rat model of CRPS [1]; 2.5% W/W Pntx-PCA (1.5% Pntx and 1% PCA) compared to 3.5% Pntx and 2% PCA W/W): significantly exceeds the effect achieved by double the amount of its constituent drugs | increase in potency (CPIP rat model of CRPS [1]; Pntx-PCA compared to Pntx, from shift of log-dose response curve): ~4 fold | leftward shift of the log-dose response curve (CPIP rat model of CRPS [1]; Pntx-PCA compared to Pntx, p=0.0113): 0.59 log units | anti-allodynic effect (PWT) compared to ointment base alone (CPIP rat model of CRPS [1]; topical 5 and 10% W/W, ipsilateral hind paw, 30 to 60 minutes post-application, n=8): significant anti-allodynic effects | anti-allodynic effects when applied to the contralateral (uninjured) paw (CPIP rat model of CRPS [2]): no anti-allodynic effects

pentoxifylline-gallic acid [Pntx-GallA]
anti-allodynic effects of topical formulations (CPIP rat model of CRPS [1]; Pntx-GallA, CRPS rats, overall): modest anti-allodynic effects | difference in change in PWT versus respective doses of Pntx (CPIP rat model of CRPS [1]; different doses, 3 hours of testing following topical application): no significant measurable difference | improvement in PWT compared to vehicle (CPIP rat model of CRPS [1]; observed at the only dose of 4% W/W, p<0.05): significant improvement in PWT
